# ChEMBL document CHEMBL1921670, “Discovery and optimization of indole and 7-azaindoles as Rho kinase (ROCK) inhibitors (part-II)” (Bioorg Med Chem Lett, 2011)
# Test system: not listed separately
# Test: Clearance in rat at 1 mg/kg, iv or 2 mg/kg, po
# Format: ADME, organism-based
# Details: in vivo
row,Compound,clearance
1,COc1cccc(CNC(=O)c2[nH]c3cc(-c4cn[nH]c4)ccc3c2CN2CCOCC2)c1,32 mL/min/kg
2,COc1cccc(CNC(=O)c2cc3ccc(-c4cn[nH]c4)nc3n2C)c1,4 mL/min/kg
3,COc1cccc(CNC(=O)c2cn(CCN(C)C)c3cc(-c4cn[nH]c4)ccc23)c1,42 mL/min/kg
4,COc1cccc(CNC(=O)c2cn(CCN3CCCC3)c3nc(-c4cn[nH]c4)ccc23)c1,114 mL/min/kg
5,COc1cccc(CN(C(=O)c2cc3ccc(-c4cn[nH]c4)nc3[nH]2)C2CC2)c1,21 mL/min/kg

# Test system: not listed separately
# Test: Aqueous solubility of compound at pH 5.5
# Format: physicochemical
# Details: buffer
row,Compound,solubility
1,COc1cccc(CNC(=O)c2cc3ccc(-c4cn[nH]c4)cc3[nH]2)c1,≤ 0.01 µM
2,COc1cccc(CNC(=O)c2cn(CCN(C)C)c3cc(-c4cn[nH]c4)ccc23)c1,≥ 100 µM

# Test system: not listed separately
# Test: AUC in rat at 1 mg/kg, iv
# Format: ADME, organism-based
# Parameters: dose 1 mg/kg, route intravenous
# Details: plasma
row,Compound,AUC
1,COc1cccc(CNC(=O)c2[nH]c3cc(-c4cn[nH]c4)ccc3c2CN2CCOCC2)c1,1.2 µM·h
2,COc1cccc(CNC(=O)c2cc3ccc(-c4cn[nH]c4)nc3n2C)c1,11.5 µM·h
3,COc1cccc(CNC(=O)c2cn(CCN(C)C)c3cc(-c4cn[nH]c4)ccc23)c1,1 µM·h
4,COc1cccc(CNC(=O)c2cn(CCN3CCCC3)c3nc(-c4cn[nH]c4)ccc23)c1,0.3 µM·h
5,COc1cccc(CN(C(=O)c2cc3ccc(-c4cn[nH]c4)nc3[nH]2)C2CC2)c1,2.2 µM·h

# Target: CYP2D6 (Homo sapiens, UniProt P10635)
# Sequence (P10635 whole entry): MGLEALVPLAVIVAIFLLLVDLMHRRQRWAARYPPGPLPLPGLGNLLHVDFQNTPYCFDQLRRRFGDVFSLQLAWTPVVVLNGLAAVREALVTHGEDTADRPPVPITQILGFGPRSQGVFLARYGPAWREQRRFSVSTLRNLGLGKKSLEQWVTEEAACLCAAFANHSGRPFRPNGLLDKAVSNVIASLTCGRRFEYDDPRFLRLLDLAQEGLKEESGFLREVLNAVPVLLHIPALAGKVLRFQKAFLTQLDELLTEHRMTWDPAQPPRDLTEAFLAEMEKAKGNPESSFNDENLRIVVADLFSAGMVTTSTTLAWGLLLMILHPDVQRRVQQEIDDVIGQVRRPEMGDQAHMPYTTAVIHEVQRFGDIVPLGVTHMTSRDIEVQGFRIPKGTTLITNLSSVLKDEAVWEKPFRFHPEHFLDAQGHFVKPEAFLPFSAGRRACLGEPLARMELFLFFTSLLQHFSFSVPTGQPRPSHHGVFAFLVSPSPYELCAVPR
# Test: Inhibition of CYP2D6 at 10 uM
# Format: ADME
# Details: not given
row,Compound,inhibition at 10 µM
1,COc1cccc(CNC(=O)c2[nH]c3cc(-c4cn[nH]c4)ccc3c2CN2CCOCC2)c1,70%
2,COc1cccc(CNC(=O)c2cc3ccc(-c4cn[nH]c4)nc3n2C)c1,48%
3,COc1cccc(CNC(=O)c2cn(CCN(C)C)c3cc(-c4cn[nH]c4)ccc23)c1,53%
4,COc1cccc(CNC(=O)c2cn(CCN3CCCC3)c3nc(-c4cn[nH]c4)ccc23)c1,69%
5,COc1cccc(CN(C(=O)c2cc3ccc(-c4cn[nH]c4)nc3[nH]2)C2CC2)c1,30%

# Target: Rho-associated protein kinase 2 (Homo sapiens, UniProt O75116)
# Sequence (O75116 whole entry): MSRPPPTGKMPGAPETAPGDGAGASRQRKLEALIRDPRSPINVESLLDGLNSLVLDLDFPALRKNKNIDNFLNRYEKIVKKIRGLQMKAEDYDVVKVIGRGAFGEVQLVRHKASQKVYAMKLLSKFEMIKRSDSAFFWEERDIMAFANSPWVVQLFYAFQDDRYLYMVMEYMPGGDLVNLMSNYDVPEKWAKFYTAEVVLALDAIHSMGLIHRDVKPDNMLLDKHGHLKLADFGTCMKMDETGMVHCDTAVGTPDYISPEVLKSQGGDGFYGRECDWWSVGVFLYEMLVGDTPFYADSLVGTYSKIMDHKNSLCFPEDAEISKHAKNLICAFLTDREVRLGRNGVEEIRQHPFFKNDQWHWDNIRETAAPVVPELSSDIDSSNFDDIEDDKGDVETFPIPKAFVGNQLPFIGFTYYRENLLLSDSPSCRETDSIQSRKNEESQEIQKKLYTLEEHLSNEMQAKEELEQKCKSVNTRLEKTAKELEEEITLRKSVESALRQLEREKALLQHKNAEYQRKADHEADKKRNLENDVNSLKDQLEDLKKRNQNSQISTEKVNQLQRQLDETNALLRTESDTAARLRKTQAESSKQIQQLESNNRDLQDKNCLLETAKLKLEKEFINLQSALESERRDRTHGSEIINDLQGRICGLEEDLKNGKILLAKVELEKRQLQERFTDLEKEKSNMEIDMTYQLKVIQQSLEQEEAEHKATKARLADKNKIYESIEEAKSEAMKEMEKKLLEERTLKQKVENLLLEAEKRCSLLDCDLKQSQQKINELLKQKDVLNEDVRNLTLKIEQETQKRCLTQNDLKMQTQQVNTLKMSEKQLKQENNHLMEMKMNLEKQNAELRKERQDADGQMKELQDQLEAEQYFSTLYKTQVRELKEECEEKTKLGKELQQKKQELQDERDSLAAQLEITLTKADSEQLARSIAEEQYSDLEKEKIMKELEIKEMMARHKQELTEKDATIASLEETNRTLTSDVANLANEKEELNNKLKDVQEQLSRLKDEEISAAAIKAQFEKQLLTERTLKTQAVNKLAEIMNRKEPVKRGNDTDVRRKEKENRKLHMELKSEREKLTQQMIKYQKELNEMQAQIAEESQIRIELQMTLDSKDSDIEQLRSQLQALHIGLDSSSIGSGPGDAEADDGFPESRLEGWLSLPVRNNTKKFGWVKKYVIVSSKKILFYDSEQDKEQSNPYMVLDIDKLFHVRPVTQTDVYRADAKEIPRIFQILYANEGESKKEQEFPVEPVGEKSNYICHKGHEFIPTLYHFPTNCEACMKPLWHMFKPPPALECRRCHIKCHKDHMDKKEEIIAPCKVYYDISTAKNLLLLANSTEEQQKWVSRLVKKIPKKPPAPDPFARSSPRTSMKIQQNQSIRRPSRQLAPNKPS
# Test: Inhibition of ROCK2
# Details: not given
row,Compound,IC50
1,COc1cccc(CNC(=O)c2[nH]c3cc(-c4cn[nH]c4)ccc3c2CN2CCOCC2)c1,3 nM
2,COc1cccc(CNC(=O)c2cc3ccc(-c4cn[nH]c4)nc3n2C)c1,< 1 nM
3,COc1cccc(CNC(=O)c2cn(CCN(C)C)c3cc(-c4cn[nH]c4)ccc23)c1,< 1 nM
4,COc1cccc(CNC(=O)c2cn(CCN3CCCC3)c3nc(-c4cn[nH]c4)ccc23)c1,8 nM
5,COc1cccc(CN(C(=O)c2cc3ccc(-c4cn[nH]c4)nc3[nH]2)C2CC2)c1,8 nM

# Target: Rho-associated protein kinase 1 (Homo sapiens, UniProt Q13464)
# Sequence (Q13464 whole entry): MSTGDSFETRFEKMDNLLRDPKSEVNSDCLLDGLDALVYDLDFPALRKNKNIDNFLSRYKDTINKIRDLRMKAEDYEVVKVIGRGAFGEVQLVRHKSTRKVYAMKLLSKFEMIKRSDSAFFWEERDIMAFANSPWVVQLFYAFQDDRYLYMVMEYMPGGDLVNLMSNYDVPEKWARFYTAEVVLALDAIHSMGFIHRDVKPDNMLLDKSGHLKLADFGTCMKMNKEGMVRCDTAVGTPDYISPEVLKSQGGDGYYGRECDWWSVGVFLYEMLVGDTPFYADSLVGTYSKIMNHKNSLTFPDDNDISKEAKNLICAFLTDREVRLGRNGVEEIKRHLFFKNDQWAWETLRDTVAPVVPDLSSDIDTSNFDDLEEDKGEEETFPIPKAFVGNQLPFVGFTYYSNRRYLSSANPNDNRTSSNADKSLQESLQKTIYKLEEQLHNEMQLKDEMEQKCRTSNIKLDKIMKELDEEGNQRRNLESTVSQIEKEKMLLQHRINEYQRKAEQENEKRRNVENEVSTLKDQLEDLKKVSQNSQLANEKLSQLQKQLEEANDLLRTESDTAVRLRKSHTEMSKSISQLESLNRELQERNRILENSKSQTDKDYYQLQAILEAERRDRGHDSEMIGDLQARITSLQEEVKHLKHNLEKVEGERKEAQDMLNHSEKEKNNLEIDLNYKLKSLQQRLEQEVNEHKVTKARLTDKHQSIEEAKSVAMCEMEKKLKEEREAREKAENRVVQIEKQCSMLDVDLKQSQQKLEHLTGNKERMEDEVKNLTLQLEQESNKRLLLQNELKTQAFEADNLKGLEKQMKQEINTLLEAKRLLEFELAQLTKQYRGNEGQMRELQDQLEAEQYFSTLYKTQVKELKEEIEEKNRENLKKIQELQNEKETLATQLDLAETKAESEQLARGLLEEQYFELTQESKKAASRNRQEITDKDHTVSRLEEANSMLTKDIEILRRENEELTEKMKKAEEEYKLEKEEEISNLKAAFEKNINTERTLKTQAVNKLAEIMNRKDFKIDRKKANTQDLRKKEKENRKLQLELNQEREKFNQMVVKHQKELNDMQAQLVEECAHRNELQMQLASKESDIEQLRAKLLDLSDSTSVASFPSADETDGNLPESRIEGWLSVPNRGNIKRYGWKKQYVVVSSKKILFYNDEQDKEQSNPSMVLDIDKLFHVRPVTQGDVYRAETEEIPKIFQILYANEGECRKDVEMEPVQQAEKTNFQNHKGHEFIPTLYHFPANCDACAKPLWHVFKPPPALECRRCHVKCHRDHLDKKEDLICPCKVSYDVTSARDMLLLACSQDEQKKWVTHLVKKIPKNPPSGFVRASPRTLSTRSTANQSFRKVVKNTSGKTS
# Test: Inhibition of ROCK1
# Details: not given
row,Compound,IC50
1,COc1cccc(CNC(=O)c2[nH]c3cc(-c4cn[nH]c4)ccc3c2CN2CCOCC2)c1,40 nM
2,COc1cccc(CNC(=O)c2cc3ccc(-c4cn[nH]c4)nc3n2C)c1,2 nM
3,COc1cccc(CNC(=O)c2cn(CCN(C)C)c3cc(-c4cn[nH]c4)ccc23)c1,5 nM
4,COc1cccc(CNC(=O)c2cn(CCN3CCCC3)c3nc(-c4cn[nH]c4)ccc23)c1,89 nM
5,COc1cccc(CN(C(=O)c2cc3ccc(-c4cn[nH]c4)nc3[nH]2)C2CC2)c1,33 nM

# Test system: not listed separately
# Test: Oral bioavailability in rat at 2 mg/kg
# Format: ADME, organism-based
# Details: in vivo
row,Compound,bioavailability
1,COc1cccc(CNC(=O)c2[nH]c3cc(-c4cn[nH]c4)ccc3c2CN2CCOCC2)c1,0%
2,COc1cccc(CNC(=O)c2cc3ccc(-c4cn[nH]c4)nc3n2C)c1,35%
3,COc1cccc(CNC(=O)c2cn(CCN(C)C)c3cc(-c4cn[nH]c4)ccc23)c1,1%
4,COc1cccc(CNC(=O)c2cn(CCN3CCCC3)c3nc(-c4cn[nH]c4)ccc23)c1,0%
5,COc1cccc(CN(C(=O)c2cc3ccc(-c4cn[nH]c4)nc3[nH]2)C2CC2)c1,22%

# Test system: not listed separately
# Test: Half life in human liver microsomes
# Format: ADME, Microsome
# Details: not given
row,Compound,half-life
1,COc1cccc(CNC(=O)c2[nH]c3cc(-c4cn[nH]c4)ccc3c2CN2CCOCC2)c1,8 min
2,COc1cccc(CNC(=O)c2cc3ccc(-c4cn[nH]c4)nc3n2C)c1,68 min
3,COc1cccc(CNC(=O)c2cn(CCN(C)C)c3cc(-c4cn[nH]c4)ccc23)c1,20 min
4,COc1cccc(CNC(=O)c2cn(CCN3CCCC3)c3nc(-c4cn[nH]c4)ccc23)c1,21 min
5,COc1cccc(CN(C(=O)c2cc3ccc(-c4cn[nH]c4)nc3[nH]2)C2CC2)c1,27 min

# Test system: not listed separately
# Test: Aqueous solubility of compound at pH 7.4
# Format: physicochemical
# Details: buffer
row,Compound,solubility
1,COc1cccc(CNC(=O)c2cc3ccc(-c4cn[nH]c4)cc3[nH]2)c1,≤ 0.01 µM
2,COc1cccc(CNC(=O)c2cn(CCN(C)C)c3cc(-c4cn[nH]c4)ccc23)c1,77 µM

# Test system: not listed separately
# Test: AUC in rat at 2 mg/kg, po
# Format: ADME, organism-based
# Parameters: dose 2 mg/kg, route oral
# Details: plasma
row,Compound,AUC
1,COc1cccc(CNC(=O)c2cc3ccc(-c4cn[nH]c4)nc3n2C)c1,7.9 µM·h
2,COc1cccc(CNC(=O)c2cn(CCN(C)C)c3cc(-c4cn[nH]c4)ccc23)c1,0.02 µM·h
3,COc1cccc(CN(C(=O)c2cc3ccc(-c4cn[nH]c4)nc3[nH]2)C2CC2)c1,1 µM·h

# Test system: not listed separately
# Test: Inhibition of PKA
# Details: not given
row,Compound,IC50
1,COc1cccc(CNC(=O)c2cc3ccc(-c4cn[nH]c4)cc3[nH]2)c1,6.7 µM
2,COc1cccc(CNC(=O)c2[nH]c3cc(-c4cn[nH]c4)ccc3c2CN2CCOCC2)c1,18 µM
3,COc1cccc(CNC(=O)c2cc3ccc(-c4cn[nH]c4)nc3n2C)c1,0.15 µM
4,COc1cccc(CNC(=O)c2cn(CCN(C)C)c3cc(-c4cn[nH]c4)ccc23)c1,7 µM
5,COc1cccc(CNC(=O)c2cn(CCN3CCCC3)c3nc(-c4cn[nH]c4)ccc23)c1,> 20 µM
6,COc1cccc(CN(C(=O)c2cc3ccc(-c4cn[nH]c4)nc3[nH]2)C2CC2)c1,1.7 µM

# Target: CYP2C9 (Homo sapiens, UniProt P11712)
# Sequence (P11712 whole entry): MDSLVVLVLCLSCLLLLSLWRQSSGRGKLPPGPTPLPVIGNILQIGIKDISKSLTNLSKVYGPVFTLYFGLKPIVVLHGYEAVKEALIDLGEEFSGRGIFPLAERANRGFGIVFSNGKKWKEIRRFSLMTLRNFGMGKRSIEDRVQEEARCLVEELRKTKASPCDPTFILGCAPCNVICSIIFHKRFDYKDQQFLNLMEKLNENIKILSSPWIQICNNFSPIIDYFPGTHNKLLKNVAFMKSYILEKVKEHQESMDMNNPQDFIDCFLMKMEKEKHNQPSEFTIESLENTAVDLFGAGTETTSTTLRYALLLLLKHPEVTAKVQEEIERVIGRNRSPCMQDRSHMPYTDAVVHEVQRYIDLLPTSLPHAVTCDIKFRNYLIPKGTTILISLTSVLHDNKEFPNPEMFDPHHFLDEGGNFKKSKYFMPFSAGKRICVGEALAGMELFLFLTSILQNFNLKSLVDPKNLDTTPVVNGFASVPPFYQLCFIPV
# Test: Inhibition of CYP2C9 at 10 uM
# Format: ADME
# Details: not given
row,Compound,inhibition at 10 µM
1,COc1cccc(CNC(=O)c2[nH]c3cc(-c4cn[nH]c4)ccc3c2CN2CCOCC2)c1,86%
2,COc1cccc(CNC(=O)c2cc3ccc(-c4cn[nH]c4)nc3n2C)c1,76%
3,COc1cccc(CNC(=O)c2cn(CCN(C)C)c3cc(-c4cn[nH]c4)ccc23)c1,91%
4,COc1cccc(CNC(=O)c2cn(CCN3CCCC3)c3nc(-c4cn[nH]c4)ccc23)c1,51%
5,COc1cccc(CN(C(=O)c2cc3ccc(-c4cn[nH]c4)nc3[nH]2)C2CC2)c1,52%

# Test system: not listed separately
# Test: Half life in rat at 1 mg/kg, iv or 2 mg/kg, po
# Format: ADME, organism-based
# Details: in vivo
row,Compound,half-life
1,COc1cccc(CNC(=O)c2[nH]c3cc(-c4cn[nH]c4)ccc3c2CN2CCOCC2)c1,84 min
2,COc1cccc(CNC(=O)c2cc3ccc(-c4cn[nH]c4)nc3n2C)c1,108 min
3,COc1cccc(CNC(=O)c2cn(CCN(C)C)c3cc(-c4cn[nH]c4)ccc23)c1,72 min
4,COc1cccc(CNC(=O)c2cn(CCN3CCCC3)c3nc(-c4cn[nH]c4)ccc23)c1,90 min
5,COc1cccc(CN(C(=O)c2cc3ccc(-c4cn[nH]c4)nc3[nH]2)C2CC2)c1,54 min

# Test system: not listed separately
# Test: Inhibition of myosin light chain bisphosphorylation by cell-based assay
# Details: not given
row,Compound,IC50
1,COc1cccc(CNC(=O)c2[nH]c3cc(-c4cn[nH]c4)ccc3c2CN2CCOCC2)c1,130 nM
2,COc1cccc(CNC(=O)c2cc3ccc(-c4cn[nH]c4)nc3n2C)c1,25 nM
3,COc1cccc(CNC(=O)c2cn(CCN(C)C)c3cc(-c4cn[nH]c4)ccc23)c1,23 nM

# Test system: not listed separately
# Test: Volume of distribution at steady state in rat at 1 mg/kg, iv or 2 mg/kg, po
# Format: ADME, organism-based
# Details: in vivo, read-out: Vdss
row,Compound,Vd
1,COc1cccc(CNC(=O)c2[nH]c3cc(-c4cn[nH]c4)ccc3c2CN2CCOCC2)c1,2 L/kg
2,COc1cccc(CNC(=O)c2cc3ccc(-c4cn[nH]c4)nc3n2C)c1,0.5 L/kg
3,COc1cccc(CNC(=O)c2cn(CCN(C)C)c3cc(-c4cn[nH]c4)ccc23)c1,3.2 L/kg
4,COc1cccc(CNC(=O)c2cn(CCN3CCCC3)c3nc(-c4cn[nH]c4)ccc23)c1,10 L/kg
5,COc1cccc(CN(C(=O)c2cc3ccc(-c4cn[nH]c4)nc3[nH]2)C2CC2)c1,1.2 L/kg

# Target: T1, CYP1A2 (Homo sapiens, UniProt P05177)
# T1 sequence (P05177 whole entry): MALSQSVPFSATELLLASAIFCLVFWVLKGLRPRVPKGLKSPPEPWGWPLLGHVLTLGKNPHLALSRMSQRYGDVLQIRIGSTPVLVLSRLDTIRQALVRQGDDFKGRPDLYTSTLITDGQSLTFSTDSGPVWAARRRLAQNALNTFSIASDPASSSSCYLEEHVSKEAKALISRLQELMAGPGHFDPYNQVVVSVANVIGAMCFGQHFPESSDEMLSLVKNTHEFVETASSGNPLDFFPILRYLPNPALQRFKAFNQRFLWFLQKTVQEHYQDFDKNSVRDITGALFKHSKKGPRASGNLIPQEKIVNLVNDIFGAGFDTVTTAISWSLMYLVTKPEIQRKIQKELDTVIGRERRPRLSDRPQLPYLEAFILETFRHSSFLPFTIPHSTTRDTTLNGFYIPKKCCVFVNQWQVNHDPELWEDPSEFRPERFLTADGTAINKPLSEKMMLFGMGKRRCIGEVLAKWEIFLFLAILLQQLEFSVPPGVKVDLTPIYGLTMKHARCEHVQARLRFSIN
# Test: Inhibition of CYP1A2 at 10 uM
# Format: ADME
# Details: not given
row,Compound,inhibition at 10 µM
1,COc1cccc(CNC(=O)c2[nH]c3cc(-c4cn[nH]c4)ccc3c2CN2CCOCC2)c1,46%
2,COc1cccc(CNC(=O)c2cc3ccc(-c4cn[nH]c4)nc3n2C)c1,1%
3,COc1cccc(CNC(=O)c2cn(CCN(C)C)c3cc(-c4cn[nH]c4)ccc23)c1,-6%
4,COc1cccc(CNC(=O)c2cn(CCN3CCCC3)c3nc(-c4cn[nH]c4)ccc23)c1,9%
5,COc1cccc(CN(C(=O)c2cc3ccc(-c4cn[nH]c4)nc3[nH]2)C2CC2)c1,16%

# Test system: not listed separately
# Test: Cmax in rat at 2 mg/kg, po
# Format: ADME, organism-based
# Parameters: dose 2 mg/kg, route oral
# Details: in vivo
row,Compound,Cmax
1,COc1cccc(CNC(=O)c2cc3ccc(-c4cn[nH]c4)nc3n2C)c1,1190 nM
2,COc1cccc(CN(C(=O)c2cc3ccc(-c4cn[nH]c4)nc3[nH]2)C2CC2)c1,255 nM

# Target: CYP3A4 (Homo sapiens, UniProt P08684)
# Sequence (P08684 whole entry): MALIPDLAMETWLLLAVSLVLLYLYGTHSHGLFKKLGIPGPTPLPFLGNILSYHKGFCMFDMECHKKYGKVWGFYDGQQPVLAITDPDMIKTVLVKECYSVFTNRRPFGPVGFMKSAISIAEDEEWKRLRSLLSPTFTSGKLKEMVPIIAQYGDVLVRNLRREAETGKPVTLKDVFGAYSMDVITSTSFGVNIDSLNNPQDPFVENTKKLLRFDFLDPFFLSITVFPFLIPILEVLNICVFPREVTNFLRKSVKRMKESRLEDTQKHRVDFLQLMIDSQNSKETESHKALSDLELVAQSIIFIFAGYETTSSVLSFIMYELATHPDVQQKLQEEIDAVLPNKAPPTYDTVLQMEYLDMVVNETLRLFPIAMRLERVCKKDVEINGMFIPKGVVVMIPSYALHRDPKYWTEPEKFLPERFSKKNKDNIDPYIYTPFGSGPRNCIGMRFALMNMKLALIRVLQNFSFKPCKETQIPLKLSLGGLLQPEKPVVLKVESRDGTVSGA
# Test: Inhibition of CYP3A4 at 10 uM
# Format: ADME
# Details: not given
row,Compound,inhibition at 10 µM
1,COc1cccc(CNC(=O)c2[nH]c3cc(-c4cn[nH]c4)ccc3c2CN2CCOCC2)c1,86%
2,COc1cccc(CNC(=O)c2cc3ccc(-c4cn[nH]c4)nc3n2C)c1,40%
3,COc1cccc(CNC(=O)c2cn(CCN(C)C)c3cc(-c4cn[nH]c4)ccc23)c1,70%
4,COc1cccc(CNC(=O)c2cn(CCN3CCCC3)c3nc(-c4cn[nH]c4)ccc23)c1,44%
5,COc1cccc(CN(C(=O)c2cc3ccc(-c4cn[nH]c4)nc3[nH]2)C2CC2)c1,40%
